Tests used:
green foxtail = test: Test Example 5: herbicidal effect by foliage application, plastic box (Table 20, symbol G); format: in vivo, green foxtail (Setaria viridis); conditions: foliage application, 320 g/ha, evaluated three weeks after application
Summary of the method: (§1)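 Foliar spray test: emulsion formulation diluted in water to a set application rate, sprayed onto 14-day-old plants raised in diluvial soil at 25° C to 30° C under glass. Both herbicidal effect and crop effect rated visually three weeks later.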

blackgrass = test: Test Example 5: herbicidal effect by foliage application, plastic box (Table 20, symbol J); format: in vivo, blackgrass (Alopecurus myosuroides); conditions: foliage application, 320 g/ha, evaluated three weeks after application
Summary of the method: as §1

Chinese sprangletop = test: Test Example 3: herbicidal effect by foliage application, Wagner pot (Table 18, symbol D); format: in vivo, chinese sprangletop (Leptochloa chinensis); conditions: for herbicidal effect on D: Chinese sprangletop: amount of applied herbicide 320 g/ha
Summary of the method: (§2)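 Plants were sown in alluvial soil held under 0.1–0.5 cm standing water and grown 14 days in a greenhouse at 25–30 °C. An emulsifiable formulation, water-diluted to the set dose, was then sprayed onto the foliage, and effects were scored three weeks later using previously defined criteria.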

wild oat = test: Test Example 5: herbicidal effect by foliage application, plastic box (Table 20, symbol I); format: in vivo, wild oat (Avena fatua); conditions: foliage application, 320 g/ha, evaluated three weeks after application
Summary of the method: as §1

barnyard grass [1] = test: Test Example 3: herbicidal effect by foliage application, Wagner pot (Table 18, symbol H); format: in vivo, barnyard grass (Echinochloa crus-galli); conditions: for herbicidal effect on H: barnyard grass: amount of applied herbicide 320 g/ha
Summary of the method: as §2

windgrass = test: Test Example 5: herbicidal effect by foliage application, plastic box (Table 20, symbol L); format: in vivo, windgrass (Apera spica-venti); conditions: foliage application, 320 g/ha, evaluated three weeks after application
Summary of the method: as §1

southern crabgrass = test: Test Example 5: herbicidal effect by foliage application, plastic box (Table 20, symbol F); format: in vivo, southern crabgrass (Digitaria ciliaris); conditions: foliage application, 320 g/ha, evaluated three weeks after application
Summary of the method: as §1

chickweed = test: Test Example 5: herbicidal effect by foliage application, plastic box (Table 20, symbol P); format: in vivo, common chickweed (Stellaria media); conditions: foliage application, 320 g/ha, evaluated three weeks after application
Summary of the method: as §1

velvetleaf = test: Test Example 5: herbicidal effect by foliage application, plastic box (Table 20, symbol M); format: in vivo, velvetleaf (Abutilon theophrasti); conditions: foliage application, 320 g/ha, evaluated three weeks after application
Summary of the method: as §1

Italian ryegrass = test: Test Example 5: herbicidal effect by foliage application, plastic box (Table 20, symbol K); format: in vivo, Italian ryegrass (Lolium multiflorum); conditions: foliage application, 320 g/ha, evaluated three weeks after application
Summary of the method: as §1

barnyard grass [2] = test: Test Example 5: herbicidal effect by foliage application, plastic box (Table 20, symbol H); format: in vivo, barnyard grass (Echinochloa crus-galli); conditions: foliage application, 320 g/ha, evaluated three weeks after application
Summary of the method: as §1

persian speedwell = test: Test Example 5: herbicidal effect by foliage application, plastic box (Table 20, symbol R); format: in vivo, Persian speedwell (Veronica persica); conditions: foliage application, 320 g/ha, evaluated three weeks after application
Summary of the method: as §1

rice flat sedge = test: Test Example 3: herbicidal effect by foliage application, Wagner pot (Table 18, symbol E); format: in vivo, rice flat sedge (Cyperus iria); conditions: for herbicidal effect on E: rice flat sedge: amount of applied herbicide 320 g/ha
Summary of the method: as §2

lambsquarters = test: Test Example 5: herbicidal effect by foliage application, plastic box (Table 20, symbol O); format: in vivo, lambsquarters (Chenopodium album); conditions: foliage application, 320 g/ha, evaluated three weeks after application
Summary of the method: as §1

redroot pigweed = test: Test Example 5: herbicidal effect by foliage application, plastic box (Table 20, symbol N); format: in vivo, redroot pigweed (Amaranthus retroflexus); conditions: foliage application, 320 g/ha, evaluated three weeks after application
Summary of the method: as §1

Cc1nn(C)c(=O)c(-c2c(-c3ccc(Oc4ccccc4)cc3)sc3ccc(F)cc23)c1O [2-072]
herbicidal effect on G: green foxtail (green foxtail): 0 (Herbicidal rate of 5% or less (almost no effect))
herbicidal effect on J: blackgrass (blackgrass): 0 (Herbicidal rate of 5% or less (almost no effect))
herbicidal effect on D (Chinese sprangletop), rating 0-5 (Chinese sprangletop; 320 g/ha): 3 (Herbicidal rate of 40% or more and less than 70%)
herbicidal effect on I: wild oat (wild oat): 0 (Herbicidal rate of 5% or less (almost no effect))
herbicidal effect on H (barnyard grass), rating 0-5 (barnyard grass [1]; 320 g/ha): 2 (Herbicidal rate of 20% or more and less than 40%)
herbicidal effect on L: windgrass (windgrass): 0 (Herbicidal rate of 5% or less (almost no effect))
herbicidal effect on F: southern crabgrass (southern crabgrass): 0 (Herbicidal rate of 5% or less (almost no effect))
herbicidal effect on P: chickweed (chickweed): 0 (Herbicidal rate of 5% or less (almost no effect))
herbicidal effect on M: velvetleaf (velvetleaf): 2 (Herbicidal rate of 20% or more and less than 40%)
herbicidal effect on K: Italian ryegrass (Italian ryegrass): 0 (Herbicidal rate of 5% or less (almost no effect))
herbicidal effect on H: barnyard grass (barnyard grass [2]): 0 (Herbicidal rate of 5% or less (almost no effect))
herbicidal effect on R: persian speedwell (persian speedwell): 5 (Herbicidal rate of 90% or more (almost completely withered))
herbicidal effect on E (rice flat sedge), rating 0-5 (rice flat sedge; 320 g/ha): 5 (Herbicidal rate of 90% or more (almost completely withered))
herbicidal effect on O: lambsquarters (lambsquarters): 1 (Herbicidal rate of 5% or more and less than 20%)
herbicidal effect on N: redroot pigweed (redroot pigweed): 3 (Herbicidal rate of 40% or more and less than 70%)

CSc1ccccc1-c1sc2ccc(C)cc2c1-c1c(O)c(C)nn(C)c1=O [2-142]
herbicidal effect on G: green foxtail (criteria 0-5) (green foxtail): 0 (Herbicidal rate of 5% or less (almost no effect))
herbicidal effect on J: blackgrass (criteria 0-5) (blackgrass): 1 (Herbicidal rate of 5% or more and less than 20%)
herbicidal effect on D: Chinese sprangletop (Chinese sprangletop): 0 (Herbicidal rate of 5% or less (almost no effect))
herbicidal effect on I: wild oat (criteria 0-5) (wild oat): 1 (Herbicidal rate of 5% or more and less than 20%)
herbicidal effect on H: barnyard grass (barnyard grass [1]): 2 (Herbicidal rate of 20% or more and less than 40%)
herbicidal effect on L: windgrass (criteria 0-5) (windgrass): 0 (Herbicidal rate of 5% or less (almost no effect))
herbicidal effect on F: southern crabgrass (criteria 0-5) (southern crabgrass): 0 (Herbicidal rate of 5% or less (almost no effect))
herbicidal effect on P: chickweed (criteria 0-5) (chickweed): 4 (Herbicidal rate of 70% or more and less than 90%)
herbicidal effect on M: velvetleaf (criteria 0-5) (velvetleaf): 0 (Herbicidal rate of 5% or less (almost no effect))
herbicidal effect on K: Italian ryegrass (criteria 0-5) (Italian ryegrass): 1 (Herbicidal rate of 5% or more and less than 20%)
herbicidal effect on H: barnyard grass (criteria 0-5) (barnyard grass [2]): 0 (Herbicidal rate of 5% or less (almost no effect))
herbicidal effect on R: persian speedwell (criteria 0-5) (persian speedwell): 3 (Herbicidal rate of 40% or more and less than 70%)
herbicidal effect on E: rice flat sedge (rice flat sedge): 2 (Herbicidal rate of 20% or more and less than 40%)
herbicidal effect on O: lambsquarters (criteria 0-5) (lambsquarters): 0 (Herbicidal rate of 5% or less (almost no effect))
herbicidal effect on N: redroot pigweed (criteria 0-5) (redroot pigweed): 0 (Herbicidal rate of 5% or less (almost no effect))

CCCC(=O)Oc1c(C)nn(C)c(=O)c1-c1c(-c2ccc([N+](=O)[O-])cc2)sc2ccc(C)cc12 [2-145]
herbicidal effect on G: green foxtail (criteria 0-5) (green foxtail): 3 (Herbicidal rate of 40% or more and less than 70%)
herbicidal effect on J: blackgrass (criteria 0-5) (blackgrass): 0 (Herbicidal rate of 5% or less (almost no effect))
herbicidal effect on D: Chinese sprangletop (Chinese sprangletop): 0 (Herbicidal rate of 5% or less (almost no effect))
herbicidal effect on I: wild oat (criteria 0-5) (wild oat): 0 (Herbicidal rate of 5% or less (almost no effect))
herbicidal effect on H: barnyard grass (barnyard grass [1]): 3 (Herbicidal rate of 40% or more and less than 70%)
herbicidal effect on L: windgrass (criteria 0-5) (windgrass): 0 (Herbicidal rate of 5% or less (almost no effect))
herbicidal effect on F: southern crabgrass (criteria 0-5) (southern crabgrass): 1 (Herbicidal rate of 5% or more and less than 20%)
herbicidal effect on P: chickweed (criteria 0-5) (chickweed): 5 (Herbicidal rate of 90% or more (almost completely withered))
herbicidal effect on M: velvetleaf (criteria 0-5) (velvetleaf): 4 (Herbicidal rate of 70% or more and less than 90%)
herbicidal effect on K: Italian ryegrass (criteria 0-5) (Italian ryegrass): 3 (Herbicidal rate of 40% or more and less than 70%)
herbicidal effect on H: barnyard grass (criteria 0-5) (barnyard grass [2]): 3 (Herbicidal rate of 40% or more and less than 70%)
herbicidal effect on R: persian speedwell (criteria 0-5) (persian speedwell): 5 (Herbicidal rate of 90% or more (almost completely withered))
herbicidal effect on E: rice flat sedge (rice flat sedge): 4 (Herbicidal rate of 70% or more and less than 90%)
herbicidal effect on O: lambsquarters (criteria 0-5) (lambsquarters): 4 (Herbicidal rate of 70% or more and less than 90%)
herbicidal effect on N: redroot pigweed (criteria 0-5) (redroot pigweed): 4 (Herbicidal rate of 70% or more and less than 90%)

COc1ccc(-c2sc3ccc(C)cc3c2-c2c(O)c(C)nn(C)c2=O)cc1OC [2-152]
herbicidal effect on G: green foxtail (criteria 0-5) (green foxtail): 0 (Herbicidal rate of 5% or less (almost no effect))
herbicidal effect on J: blackgrass (criteria 0-5) (blackgrass): 0 (Herbicidal rate of 5% or less (almost no effect))
herbicidal effect on D: Chinese sprangletop (Chinese sprangletop): 0 (Herbicidal rate of 5% or less (almost no effect))
herbicidal effect on I: wild oat (criteria 0-5) (wild oat): 0 (Herbicidal rate of 5% or less (almost no effect))
herbicidal effect on H: barnyard grass (barnyard grass [1]): 0 (Herbicidal rate of 5% or less (almost no effect))
herbicidal effect on L: windgrass (criteria 0-5) (windgrass): 0 (Herbicidal rate of 5% or less (almost no effect))
herbicidal effect on F: southern crabgrass (criteria 0-5) (southern crabgrass): 0 (Herbicidal rate of 5% or less (almost no effect))
herbicidal effect on P: chickweed (criteria 0-5) (chickweed): 5 (Herbicidal rate of 90% or more (almost completely withered))
herbicidal effect on M: velvetleaf (criteria 0-5) (velvetleaf): 0 (Herbicidal rate of 5% or less (almost no effect))
herbicidal effect on K: Italian ryegrass (criteria 0-5) (Italian ryegrass): 2 (Herbicidal rate of 20% or more and less than 40%)
herbicidal effect on H: barnyard grass (criteria 0-5) (barnyard grass [2]): 0 (Herbicidal rate of 5% or less (almost no effect))
herbicidal effect on R: persian speedwell (criteria 0-5) (persian speedwell): 4 (Herbicidal rate of 70% or more and less than 90%)
herbicidal effect on E: rice flat sedge (rice flat sedge): 3 (Herbicidal rate of 40% or more and less than 70%)
herbicidal effect on O: lambsquarters (criteria 0-5) (lambsquarters): 0 (Herbicidal rate of 5% or less (almost no effect))
herbicidal effect on N: redroot pigweed (criteria 0-5) (redroot pigweed): 0 (Herbicidal rate of 5% or less (almost no effect))

COc1cc(F)ccc1-c1sc2ccc(N(C)C(C)=O)cc2c1-c1c(O)c(C)nn(C)c1=O [2-177]
herbicidal effect on G: green foxtail (criteria 0-5) (green foxtail): 3 (Herbicidal rate of 40% or more and less than 70%)
herbicidal effect on J: blackgrass (criteria 0-5) (blackgrass): 3 (Herbicidal rate of 40% or more and less than 70%)
herbicidal effect on D: Chinese sprangletop (Chinese sprangletop): 4 (Herbicidal rate of 70% or more and less than 90%)
herbicidal effect on I: wild oat (criteria 0-5) (wild oat): 0 (Herbicidal rate of 5% or less (almost no effect))
herbicidal effect on H: barnyard grass (barnyard grass [1]): 3 (Herbicidal rate of 40% or more and less than 70%)
herbicidal effect on L: windgrass (criteria 0-5) (windgrass): 3 (Herbicidal rate of 40% or more and less than 70%)
herbicidal effect on F: southern crabgrass (criteria 0-5) (southern crabgrass): 0 (Herbicidal rate of 5% or less (almost no effect))
herbicidal effect on P: chickweed (criteria 0-5) (chickweed): 5 (Herbicidal rate of 90% or more (almost completely withered))
herbicidal effect on M: velvetleaf (criteria 0-5) (velvetleaf): 3 (Herbicidal rate of 40% or more and less than 70%)
herbicidal effect on K: Italian ryegrass (criteria 0-5) (Italian ryegrass): 0 (Herbicidal rate of 5% or less (almost no effect))
herbicidal effect on H: barnyard grass (criteria 0-5) (barnyard grass [2]): 0 (Herbicidal rate of 5% or less (almost no effect))
herbicidal effect on R: persian speedwell (criteria 0-5) (persian speedwell): 4 (Herbicidal rate of 70% or more and less than 90%)
herbicidal effect on E: rice flat sedge (rice flat sedge): 3 (Herbicidal rate of 40% or more and less than 70%)
herbicidal effect on O: lambsquarters (criteria 0-5) (lambsquarters): 3 (Herbicidal rate of 40% or more and less than 70%)
herbicidal effect on N: redroot pigweed (criteria 0-5) (redroot pigweed): 4 (Herbicidal rate of 70% or more and less than 90%)
